The text below walks through data of ChEMBL document CHEMBL1151710, “Sesquiterpenes from the sponge Axinyssa isabela” (2008).

Test [1] has as its system HT-29. As to the kind of experiment: Cytotoxicity against human HT-29 cells at 10 ug/ml by SRB assay. The class given is functional, cell-based. In general terms: Sulforhodamine B stains cellular protein and so reports cell mass.
For test [2], the system named is MDA-MB-231. In words: Cytotoxicity against human MDA-MB-231 cells at 10 ug/ml by SRB assay. The class given is functional, cell-based.
Test [3] deals with A549. In words: Cytotoxicity against human A549 cells at 10 ug/ml by SRB assay. The class given is functional, cell-based.
Test [4] deals with A549. In words: Cytotoxicity against human A549 cells by SRB assay. The class given is functional.
The test system of test [5] is MDA-MB-231. In words: Cytotoxicity against human MDA-MB-231 cells by SRB assay. The class given is functional.
The test system of test [6] is HT-29. In words: Cytotoxicity against human HT-29 cells by SRB assay. The class given is functional.

Each structure is given as a SMILES string. The source made the active and inactive calls. The rule behind the calls is not given here.

Take `C=C1CCC[C@]2(C)CC[C@@H](C(=C)C)[C@H](N=C=S)[C@@H]12`: the outcome with HT-29 [1], in the test on MDA-MB-231 [2] and in the test on A549 [3] was inactive.

Turning to `C[C@H]1CC[C@@H](OO)C2=CC(=O)[C@H]3[C@H](C3(C)C)[C@@]21C`, the outcome in the test with HT-29 [1], in the test with MDA-MB-231 [2] and in the test with A549 [3] was inactive.

In the case of `C[C@H]1CC[C@@H](O)C2=CC(=O)[C@H]3[C@H](C3(C)C)[C@@]21C`, the outcome in the test with HT-29 [1], in the test with MDA-MB-231 [2] and with A549 [3] was inactive.

One may read the GI50 as the concentration that inhibits growth by half. Low values mean greater sensitivity of the cells, high ones lower sensitivity of the cells. In the case of `C=C(C)[C@]1(OO)CC[C@@]2(C)CCC[C@@](C)(N=C=S)[C@@H]2C1` [AXINISOTHIOCYANATE N], the GI50 in the test on A549 [4] came out at 32.6 µM; in the test with MDA-MB-231 [5], 33.3 µM.

As to `C[C@H]1CC(=O)C=C2[C@H]3O[C@H]3[C@H]3[C@H](C3(C)C)[C@@]21C` [AXINYSONE E], the GI50 is 38.7 µM with A549 [4] and 38.3 µM in the test on HT-29 [6].

In the case of `C[C@H]1CCC[C@]2(O)[C@@H](O)C(=O)[C@H]3[C@H](C3(C)C)[C@]12C`, the result in the test on HT-29 [1], in the test with MDA-MB-231 [2] and in the test with A549 [3] was inactive.

As for `C[C@H]1CC[C@H](O)C2=CC(=O)[C@H]3[C@H](C3(C)C)[C@@]21C`, the outcome in the test on HT-29 [1], with MDA-MB-231 [2] and in the test with A549 [3] was inactive.

Consider `C[C@H]1CCCC2=CC(=O)[C@H]3[C@H](C3(C)C)[C@@]21C`, for which the outcome with HT-29 [1], in the test with MDA-MB-231 [2] and with A549 [3] was inactive.

With `C=C(C)[C@H]1CC[C@@]2(C)CCC[C@@](C)(N=C=S)[C@@H]2C1`, the result with HT-29 [1], in the test with MDA-MB-231 [2] and with A549 [3] was inactive.

For the compound `C[C@H]1CCCC2=C[C@H](C#N)[C@H]3[C@H](C3(C)C)[C@@]21C`, the result in the test on HT-29 [1], in the test on MDA-MB-231 [2] and in the test with A549 [3] was inactive.

For the compound `C=C(C)[C@]1(O)CC[C@@]2(C)CCC[C@@](C)(N=C=S)[C@@H]2C1`, the result with HT-29 [1], in the test with MDA-MB-231 [2] and with A549 [3] was inactive.

For the compound `COc1cccc2c1C(=O)c1c(O)c3c(c(O)c1C2=O)C[C@@](O)(C(=O)CO)C[C@@H]3O[C@H]1C[C@H](N)[C@H](O)[C@H](C)O1` [DOXORUBICIN], the GI50 in the test on A549 [4], with HT-29 [6] and in the test on MDA-MB-231 [5] was 0.1 µM throughout.

Consider `CC(C)=CCCC(C)(N=C=S)[C@H]1CC=C(C)CC1` (some centres not stated), for which the outcome in the test with HT-29 [1], in the test with MDA-MB-231 [2] and in the test with A549 [3] was inactive.
